SMILES strings stand for the structures. Marks after values point to notes of the source that are not given here.

One test addresses 5-HT6 (Homo sapiens, UniProt P50406). Briefly: Radioligand binding selectivity, 5-HT6. The source says:
Similarly, Ki for the mu, kappa and delta opioids, serotonin, dopamine, adrenergic, mucarinic, and histamine receptors, as well as binding to the norepinephrine transporter, sodium channel, chloride channel, and calcium channel may be determined using membranes expressing the desired receptor/transporter/channels and appropriate corresponding radioligand competitor molecules.

A further test relates to Male Sprague-Dawley rats. Briefly: Rat dural plasma protein extravasation (PPE) model, oral dosing. The test is classed as in vivo. As for the experimental part:
All test compounds are prepared in a vehicle solution containing 20% Captisol in 25 mM phosphate buffer (pH 2.0). The positive control compound, sumatriptan, is dissolved in saline. Male Sprague-Dawley rats from Harlan Laboratories (250 to 350 g), that have been fasted overnight, are dosed with test compound, sumatriptan or vehicle by oral gavage (2 mL/kg). Fifty min. post-dose the rats are anesthetized with Nembutal (60 mg/kg, ip) and placed in a stereotaxic frame with the incisor bar set at −2.5 mm. Following a mid-line sagittal scalp incision, 2 pairs of bilateral holes were drilled through the skull (3.2 mm posteriorly, 1.8 and 3.8 mm laterally, all coordinates referenced to bregma). Pairs of stainless steel stimulating electrodes (Rhodes Medical Systems Inc), insulated except at the tips, are lowered through the holes in both hemispheres to a depth of 9.2 mm below the dura.
A solution of fluoroscein isothiocyanate (FITC) dye-labeled bovine serum albumin (BSA) (FITC-BSA) (20 mg/kg, iv), is injected into the femoral vein 2 minutes prior to electrical stimulation of the trigeminal ganglion to function as the marker for protein extravasation. Sixty minutes following dosing with test compound or vehicle, the left trigeminal ganglion is electrically stimulated for 5 minutes at a current intensity of 1.0 mA (5 Hz, 5 minutes duration).
Five minutes following stimulation, the rats are killed by exsanguination with 40 mL of saline which also rinses residual FITC/BSA out of the blood vessels. The top of the skull is removed to collect the dural membranes. The membrane samples are removed from both hemispheres, rinsed with water, and spread flat on microscope slides. The slides are dried for 15 minutes on a slide warmer and cover-slipped with a 70% glycerol/water solution.
A fluorescence microscope equipped with a grating monochromator and a spectrophotometer is used to quantify the amount of FITC-BSA dye in each dural sample. The microscope is equipped with a motorized stage interfaced with a personal computer. This facilitates the computer-controlled movement of the stage, with fluorescence measurements at 25 points (500 μm steps) on each dural sample. The extravasation induced by electrical stimulation of the trigeminal ganglion is an ipsilateral effect (that is occurs only on the side of the dura in which the trigeminal ganglion is stimulated). This allows the other (unstimulated) half of the dura to be used as a control. The extravasation ratio (that is the ratio of the amount of extravasation in the dura from the stimulated side compared to the unstimulated side) is calculated. Animals dosed with vehicle alone or an ineffective dose of the test compound have an extravasation ratio of approximately 2, while totally effective treatments result in a ratio of approximately 1.
Results are expressed as mean values with standard errors of the mean (±SEM). All statistical evaluations are conducting utilizing ANOVA followed by comparison to the control group by Dunnett's Method. Statistical significance is assumed when p<0.05. Statistical analyses are performed using JMP statistical analysis software (SAS Research Institute, version 6.0.2).

For test [1], the system named is 129S6 wild type and nociceptin/ORL1 receptor knockout mice. Briefly: mFST in wild type and ORL-1 knockout mice. In kind it is in vivo. The source says: mFST is an established in vivo assay for antidepressant activity (Li et al. J Pharmacol Exp Ther. 319(1):254-9, 2006.). […] The mFST was used to evaluate potential antidepressant-like activity of novel nociceptin/ORL1 antagonists according to previously published methods (Li et al. J Pharmacol Exp Ther. 319(1):254-9, 2006.). Briefly, male NIH-Swiss mice (Harlan Sprague-Dawley, Indianapolis, Ind.) weighing between 25-30 g are used. Group housed animals are removed from the vivarium to the testing area in their own cages and allowed to adapt to the new environment for at least 1 hour before testing. Alternatively, male 129S6 wild type and nociceptin/ORL1 receptor knockout mice were used to confirm dependence of the response to compound was nociceptin/ORL1 receptor dependent. All compounds are prepared in 20% Captisol, 25 mM phosphate buffer, pH 2.0 on the day of use. Mice are placed in a cylinder (diameter: 10 cm; height: 25 cm) filled with 6 cm of water (22-25° C.) for 6 min. The duration of immobility during the last 4 min. of the 6 min. period of the test was scored. A mouse is recorded as immobile when floating motionless or making only those movements necessary to keep its head above water.
Yet further, these effects of reduced immobilization times are not observed when ORL-1 knockout mice, a strain of mice engineered to lack the ORL-1 receptor, are used, showing that the effect is indeed mediated by the ORL-1 receptor.

5-HT6, sequence (P50406 whole entry, species assumed): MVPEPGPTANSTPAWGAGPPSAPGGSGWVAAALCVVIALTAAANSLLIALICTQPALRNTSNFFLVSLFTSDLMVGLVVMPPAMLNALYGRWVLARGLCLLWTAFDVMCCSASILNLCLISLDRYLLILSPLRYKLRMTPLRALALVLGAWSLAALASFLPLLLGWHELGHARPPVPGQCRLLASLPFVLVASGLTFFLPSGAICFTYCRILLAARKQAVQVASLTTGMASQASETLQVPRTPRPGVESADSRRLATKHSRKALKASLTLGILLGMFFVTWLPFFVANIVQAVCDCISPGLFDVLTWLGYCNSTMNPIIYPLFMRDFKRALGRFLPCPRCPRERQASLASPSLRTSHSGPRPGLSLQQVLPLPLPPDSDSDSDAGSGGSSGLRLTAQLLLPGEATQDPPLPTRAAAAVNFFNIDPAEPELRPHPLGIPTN

By Ki is commonly meant a dissociation constant, usually derived from enzyme kinetics or from competition with a known ligand. Low readings indicate a stronger hold on the target, high ones a looser hold on the target. In turn, `O=C(O)C(O)C(O)C(=O)O.OCc1nn(-c2ncccc2F)cc1CN1CCC2(CC1)OCC(F)(F)c1cc(Cl)sc12` [Example 53, [4-[(2-Chloro-4,4-difluoro-spiro[5H-thieno[2,3-c]pyran-7,4′-piperidine]-1′-yl)methyl]-1-(3-fluoro-2-pyridyl)pyrazol-3-yl]methanol (L)-Tartrate] showed a Ki at 5-HT6 of over 5.83 µM.
In the case of `Cc1nn(-c2ncccc2CO)cc1CN1CCC2(CC1)OCC(F)(F)c1cc(Cl)sc12` [Example 62, [2-[4-[(2-Chloro-4,4-difluoro-spiro[5H-thieno[2,3-c]pyran-7,4′-piperidine]-1′-yl)methyl]-3-methyl-pyrazol-1-yl]-3-pyridyl]methanol], the “Extravasation Ratio (mean)” value with Male Sprague-Dawley rats (0.1 mg/kg po) was 1.83; in the test with Male Sprague-Dawley rats (1.0 mg/kg po) it was 1.44*; with Male Sprague-Dawley rats (10.0 mg/kg po), 1.20*; with Male Sprague-Dawley rats (30.0 mg/kg po), 1.14*. Moreover, the blockade of extravasation result in the test on Male Sprague-Dawley rats (oral dosing) is “effectively block extravasation in a dose dependent manner”. Further, the “effect on immobilization time” value is “no effect” in test [1] (ORL-1 knockout mice) and “significantly reduce the immobilization time” in test [1] (wild type mice).
